Consider 33 molecules from publication PMC7587356, “High-Throughput Screening for Inhibitors of the SARS-CoV-2 Protease Using a FRET-Biosensor” (Molecules, 2020).

Where a name gives a salt, the structure may show the parent alone. Read-outs that look alike come from different tables or passages of the source. Peptide text beside a SMILES is read from it. * marks the point of attachment. Cbz = O=C(OCc1ccccc1)*

The experiment deals with SARS-CoV-2 3CLpro (Severe acute respiratory syndrome coronavirus 2, UniProt P0DTD1). In words: biochemical. The settings on record: for inhibition at 5 µM: 4 h. In kind it is biochemical. Further details: Replicate_1 / Replicate_2 / mean / mean (LOPAC_screen_w_protease): unit not given here.
The mark [1] stands for this setting: sheet LOPAC_screen_w_protease, LOPAC1280 primary screen at 5 µM, with protease, mean of the two replicates, read-out: mean.
Where [2] appears, read: sheet LOPAC_screen_w_protease, LOPAC1280 primary screen at 5 µM, with protease, replicate 1, read-out: Replicate_1.
Setting [3] is: sheet LOPAC_screen_w_protease, LOPAC1280 primary screen at 5 µM, with protease, replicate 2, read-out: Replicate_2.
The mark [4] stands for this setting: sheet LOPAC_screen_w_protease, primary screen of LOPAC1280 at 5 µM with protease, mean of the two replicates, read-out: mean.
Setting [5] is: sheet LOPAC_screen_w_protease, primary screen of LOPAC1280 at 5 µM with protease, replicate 1, read-out: Replicate_1.
[6] abbreviates: sheet LOPAC_screen_w_protease, primary screen of LOPAC1280 at 5 µM with protease, replicate 2, read-out: Replicate_2.
Where [7] appears, read: LOPAC1280 primary screen with protease, 5 µM compound, mean of the two replicates.
[8] abbreviates: sheet LOPAC_screen_w_protease, primary screen with protease, mean of two replicates, read-out: mean.
The mark [9] stands for this setting: sheet LOPAC_screen_w_protease, primary screen with protease, replicate 1, read-out: Replicate_1.
The mark [10] stands for this setting: sheet LOPAC_screen_w_protease, primary screen with protease, replicate 2, read-out: Replicate_2.
[11] abbreviates: LOPAC1280 primary screen with protease, 5 µM compound, replicate 1.
[12] abbreviates: LOPAC1280 primary screen with protease, 5 µM compound, replicate 2.
The mark [13] stands for this setting: sheet LOPAC_screen_w_protease, primary screen at 5 µM, mean of two replicates.
[14] abbreviates: sheet LOPAC_screen_w_protease, primary screen at 5 µM, replicate 1.
[15] abbreviates: sheet LOPAC_screen_w_protease, primary screen at 5 µM, replicate 2.
[16] abbreviates: sheet LOPAC_screen_w_protease, LOPAC1280 primary screen at 5 µM, with protease, replicate 1.
Setting [17] is: sheet LOPAC_screen_w_protease, LOPAC1280 primary screen at 5 µM, with protease, replicate 2.
Where [18] appears, read: sheet LOPAC_screen_w_protease, primary screen with protease, mean of two replicates.
The mark [19] stands for this setting: sheet LOPAC_screen_w_protease, primary screen with protease, replicate 1.
The mark [20] stands for this setting: sheet LOPAC_screen_w_protease, primary screen with protease, replicate 2.
The mark [21] stands for this setting: sheet LOPAC_screen_w_protease, primary screen with protease, 5 µM, mean of two replicates.
Where [22] appears, read: sheet LOPAC_screen_w_protease, primary screen with protease, 5 µM, replicate 1.
Where [23] appears, read: sheet LOPAC_screen_w_protease, primary screen with protease, 5 µM, replicate 2.

For `NC(=O)c1ccccc1` [Benzamide], the inhibition at 5 µM came to 0.755% under setting [1], 1.21% under setting [2] and 0.297% under setting [3].

Consider `CC(=O)c1ccc(S(=O)(=O)NC(=O)NC2CCCCC2)cc1` [Acetohexamide], for which the inhibition at 5 µM by setting is: under setting [4], 3.3%; under setting [5], 2.5%; under setting [6], 4.1%.

In the case of `C[C@H](Cc1ccc2c(c1)OC(C(=O)[O-])(C(=O)[O-])O2)NC[C@H](O)c1cccc(Cl)c1.[Na+].[Na+]` [CL 316,243], the “Replicate_1 (LOPAC_screen_w_protease)” value stood at 0.6829, the “Replicate_2 (LOPAC_screen_w_protease)” value amounted to 2.815 and the “mean (LOPAC_screen_w_protease)” value was 1.749.

For the molecule `CN(C)C(=O)Oc1ccc[n+](C)c1` [Pyridostigmine bromide], the inhibition at 5 µM (sheet LOPAC_screen_w_protease, primary screen with protease, 5 µM, mean of two replicates, read-out: mean) came out at 0.333%; the inhibition at 5 µM (sheet LOPAC_screen_w_protease, primary screen with protease, 5 µM, replicate 1, read-out: Replicate_1) worked out at 1.4%; the inhibition at 5 µM (sheet LOPAC_screen_w_protease, primary screen with protease, 5 µM, replicate 2, read-out: Replicate_2) is -0.737%.

On to `COc1cc2nc(N3CCN(C(=O)C4COc5ccccc5O4)CC3)nc(N)c2cc1OC` (stereo not shown) [Doxazosin mesylate], for which the inhibition at 5 µM is 3.96% (LOPAC1280 primary screen with protease, 5 µM compound, replicate 1, read-out: Replicate_1 (LOPAC_screen_w_protease)) and -0.00681% (LOPAC1280 primary screen with protease, 5 µM compound, replicate 2, read-out: Replicate_2 (LOPAC_screen_w_protease)). Besides, under setting [7], the “mean (LOPAC_screen_w_protease)” value is recorded as 1.977.

As to `CC1=C(C)C(=O)C(CCCCC#CCCCC#CCO)=C(C)C1=O` [AA-861], the inhibition at 5 µM under setting [8] was 2.27%, the inhibition at 5 µM under setting [9] was determined as 3.11% and the inhibition at 5 µM under setting [10] is 1.43%.

The molecule `C#C[C@]1(O)CC[C@H]2[C@@H]3CCC4=Cc5nc6nc7ccccc7n6cc5C[C@]4(C)[C@H]3CC[C@@]21C` [WIN 62,577] yielded a Replicate_1 of -0.8505, a Replicate_2 of 3.428 and a mean of 1.289.

As to `Cl.N[C@@H](CCC(=O)O)C(=O)O` [L-Glutamic acid hydrochloride], the “mean (LOPAC_screen_w_protease)” value (LOPAC1280 primary screen with protease, 5 µM compound, mean of two replicates) amounted to 1.56. Under setting [11], the “Replicate_1 (LOPAC_screen_w_protease)” value amounted to 1.529. Besides, the “Replicate_2 (LOPAC_screen_w_protease)” value under setting [12] was found to be 1.59.

`CC(N)(Cc1ccc(O)c(O)c1)C(=O)O` (racemic): the “mean (LOPAC screen with protease)” value under setting [13] worked out at 6.44. In addition, under setting [14], the “Replicate_1 (LOPAC screen with protease)” value was found to be 5.736. Moreover, under setting [15], the “Replicate_2 (LOPAC screen with protease)” value is 7.145.

Regarding `COc1ccc2[nH]cc(CCNC(C)=O)c2c1` [Melatonin], the inhibition at 5 µM by setting is: under setting [8], 2.28%; under setting [9], 3.18%; under setting [10], 1.38%.

As to `CCCn1c(=O)c2[nH]c(-c3ccc(OCC(=O)NCCN)cc3)nc2n(CCC)c1=O` [Xanthine amine congener], where the note is “sheet LOPAC_screen_w_protease, LOPAC1280 primary screen at 5 µM, with protease, mean of two replicates”, the mean was -1.654. Also, the Replicate_1 under setting [16] is listed as -1.399. Moreover, the Replicate_2 under setting [17] is listed as -1.91.

Under “sheet LOPAC_screen_w_protease, primary screen with protease, compound at 5 µM, mean of two replicates”, Ceramide had a mean of 2.999. The molecule also came in with a Replicate_1 (sheet LOPAC_screen_w_protease, primary screen with protease, compound at 5 µM, replicate 1) of 2.718. The molecule further gave a Replicate_2 (sheet LOPAC_screen_w_protease, primary screen with protease, compound at 5 µM, replicate 2) of 3.28.

On to `CC(=O)C(C)=O` [2,3-Butanedione], for which the inhibition at 5 µM is 0.702% under setting [1], 1.88% under setting [2] and -0.473% under setting [3].

Turning to `CC(=O)O[C@H]1C[C@@]2(C)[C@@H](C[C@@H](O)[C@H]3[C@@]4(C)CC[C@@H](O)[C@@H](C)[C@@H]4CC[C@@]32C)/C1=C(\CCC=C(C)C)C(=O)[O-].[Na+]` [Fusidic acid sodium], the mean under setting [18] worked out at 2.25. The Replicate_1 under setting [19] was 4.338. Also, the Replicate_2 under setting [20] is reported as 0.1614.

Consider `CC(N)Cc1c[nH]c2ccc(OCc3cccs3)cc12` (stereo not shown) [BW 723C86], for which the Replicate_1 was found to be 2.832, the Replicate_2 came to 3.4189 and the mean was determined as 3.125.

The molecule `Br.NCc1cc(O)no1` [Muscimol hydrobromide] came in with a mean under setting [21] of 0.06352. For the same molecule, the Replicate_1 under setting [22] came out at 2.752. The Replicate_2 under setting [23] is reported as -2.625.

Consider `Cn1c(=O)c2c(ncn2C)n(C)c1=O` [Caffeine], for which the inhibition at 5 µM under setting [8] worked out at 2.35%, the inhibition at 5 µM under setting [9] stood at 1.98% and the inhibition at 5 µM under setting [10] stood at 2.71%.

For the molecule `CC(C)NCC(O)c1ccc(O)c(O)c1.Cl` (single isomer, unassigned; (-)) [(-)-Isoproterenol hydrochloride], the “mean (LOPAC_screen_w_protease)” value under setting [7] stood at 2.084. Also, the “Replicate_2 (LOPAC_screen_w_protease)” value under setting [12] is 1.275.

As for `CCn1c(=O)[nH]c2cc(Cl)c(Cl)cc21` [DCEBIO], under setting [7], the “mean (LOPAC_screen_w_protease)” value was 1.96. Besides, under setting [11], the “Replicate_1 (LOPAC_screen_w_protease)” value was 3.009. For the same molecule, the “Replicate_2 (LOPAC_screen_w_protease)” value under setting [12] was 0.9113.

For `C[C@@]12N[C@@H](Cc3ccccc31)c1ccccc12.O=C(O)/C=C\C(=O)O` [(-)-MK-801 hydrogen maleate], the “mean (LOPAC screen with protease)” value under setting [13] is 6.636. Besides, the “Replicate_1 (LOPAC screen with protease)” value under setting [14] was determined as 5.967. Further, under setting [15], the “Replicate_2 (LOPAC screen with protease)” value was determined as 7.306.

For the molecule `COc1ccc(C(=O)N2CCCC2=O)cc1` [Aniracetam], the inhibition at 5 µM was 6.69% (sheet LOPAC_screen_w_protease, primary screen at 5 µM, mean of two replicates, read-out: mean (LOPAC screen with protease)); 9.93% (sheet LOPAC_screen_w_protease, primary screen at 5 µM, replicate 1, read-out: Replicate_1 (LOPAC screen with protease)); 3.46% (sheet LOPAC_screen_w_protease, primary screen at 5 µM, replicate 2, read-out: Replicate_2 (LOPAC screen with protease)).

`CC(C)[C@H](NC(=O)OCc1ccccc1)C(=O)N[C@H](C=O)Cc1ccccc1` [MDL 28170] (Cbz-Val-Phe-aldehyde): the inhibition at 5 µM (read-out: Replicate_1 (LOPAC_screen_w_protease)) was 0.281% and the inhibition at 5 µM (read-out: Replicate_2 (LOPAC_screen_w_protease)) turned out to be 3.52%.

Consider `CCc1c(C(=O)OC)ncc2[nH]c3cc(OC)c(OC)cc3c12`, for which the “mean (LOPAC_screen_w_protease)” value under setting [7] was found to be 2.118. The “Replicate_1 (LOPAC_screen_w_protease)” value under setting [11] is 4.217. Besides, the “Replicate_2 (LOPAC_screen_w_protease)” value under setting [12] is 0.01945.

On to `CC(C)(C)C1(O)CCN2CC3c4ccccc4CCc4cccc(c43)C2C1.Cl` (racemic) [(±)-Butaclamol hydrochloride], for which the Replicate_1 was 4.433, the Replicate_2 came out at 5.727 and the mean is 5.08.

With `CCCC(CCC)C(=O)O` [Valproic acid sodium], the inhibition at 5 µM reads like this: under setting [4], 3.18%; under setting [5], 2.68%; under setting [6], 3.67%.

Regarding `C[C@H](Cc1ccc(OCC(=O)[O-])cc1)NC[C@H](O)c1cccc(Cl)c1.[Na+]` [BRL 37344 sodium], the mean under setting [18] was found to be 2.226. The molecule also came in with a Replicate_1 under setting [19] of 0.8642. The Replicate_2 under setting [20] was found to be 3.588.

In the case of `Cn1c(=O)c2[nH]c(C3CCCC3)nc2n(C)c1=O` [8-Cyclopentyl-1,3-dimethylxanthine], the mean under setting [21] is given as 0.2262. The molecule further yielded a Replicate_1 under setting [22] of 2.489. In addition, the Replicate_2 under setting [23] is given as -2.037.

As for `CC(=O)NBr` [N-Bromoacetamide], the “mean (LOPAC_screen_w_protease)” value under setting [7] was 1.955. Also, the “Replicate_1 (LOPAC_screen_w_protease)” value under setting [11] is recorded as 1.503. For the same molecule, the “Replicate_2 (LOPAC_screen_w_protease)” value under setting [12] worked out at 2.407.

Take `CC(C)COC(=O)OCN1C(=O)CN(CCN2CC(=O)N(COC(=O)OCC(C)C)C(=O)C2)CC1=O` [Sobuzoxane]: the inhibition at 5 µM reads like this: under setting [8], 2.23%; under setting [9], 2.79%; under setting [10], 1.66%.

With `C#C[C@]1(O)CC[C@H]2[C@@H]3CCC4=Cc5oncc5C[C@]4(C)[C@H]3CC[C@@]21C` [Danazol], the inhibition at 5 µM worked out at 2.5% under setting [8], 4.08% under setting [9] and 0.911% under setting [10].

Molecule `Cl.OC1CCCCC1N1CCC(c2ccccc2)CC1` (racemic) [(±)-Vesamicol hydrochloride] displayed a mean (sheet LOPAC_screen_w_protease, LOPAC1280 primary screen at 5 µM, with protease, mean of the two replicates) of 0.573. Under setting [16], this molecule displayed a Replicate_1 of 1.205. This molecule registered a Replicate_2 under setting [17] of -0.05902.

For the molecule `CC(=O)NCCc1ccc(O)c(O)c1.O` [N-Acetyldopamine monohydrate], the “mean (LOPAC screen with protease)” value under setting [13] was found to be 81.0563. Also, under setting [14], the “Replicate_1 (LOPAC screen with protease)” value was 83.9163. Also, the “Replicate_2 (LOPAC screen with protease)” value under setting [15] was 78.1962.

In turn, `CC1CCN=C(N)S1.Cl` (racemic) [(±)-AMT hydrochloride] displayed a Replicate_1 of 3.477, a Replicate_2 of 0.9466 and a mean of 2.212.
